Results published in patent US8951580B2, “Methods for improving the safety of treating pediatric patients who are candidates for inhaled nitric oxide treatment” (priority 2009, dated 2015).

Experiments:
[1] = test system: pulmonary vasculature of children with pulmonary hypertension; test: INOT22 study: acute pulmonary vasodilator testing during cardiac catheterization; details: iNO 80 ppm; for SVRI Change From Baseline, Mean / SVRI Change From Baseline, Median / SVRI Change From Baseline, Minimum / SVRI Change From Baseline, maximum / Ratio PVRI/SVRI Change from Baseline, Maximum / Ratio PVRI/SVRI Change from Baseline, Mean / Ratio PVRI/SVRI Change from Baseline, Median / Ratio PVRI/SVRI Change from Baseline, Minimum / Ratio PVRI/SVRI Percent Change from Baseline, Maximum / Ratio PVRI/SVRI Percent Change from Baseline, Mean / Ratio PVRI/SVRI Percent Change from Baseline, Median / Ratio PVRI/SVRI Percent Change from Baseline, Minimum / Ratio PVRI/SVRI Post Treatment, Maximum / Ratio PVRI/SVRI Post Treatment, Mean / Ratio PVRI/SVRI Post Treatment, Median / Ratio PVRI/SVRI Post Treatment, Minimum / SVRI Post-treatment, Mean / SVRI Post-treatment, Median / SVRI Post-treatment, Minimum / SVRI Post-treatment, maximum: ITT, each treatment 10 minutes; for SVRI Change From Baseline, Mean / SVRI Change From Baseline, Median / SVRI Change From Baseline, Minimum / SVRI Change From Baseline, maximum: baseline room air; for tolerability: INOT22 diagnostic study, children with pulmonary hypertension
Protocol: The INOT22 study, entitled “Comparison of supplemental oxygen and nitric oxide for inhalation plus oxygen in the evaluation of the reactivity of the pulmonary vasculature during acute pulmonary vasodilatory testing” was conducted both to assess the safety and effectiveness of INOmax® as a diagnostic agent in patients undergoing assessment of pulmonary hypertension (primary endpoint), and to confirm the hypothesis that iNO is selective for the pulmonary vasculature (secondary endpoint).
In particular, the INOT22 protocol studied consecutive children undergoing cardiac catheterization that were prospectively enrolled at 16 centers in the US and Europe. Inclusion criteria: 4 weeks to 18 years of age, pulmonary hypertension diagnosis, i.e. either idiopathic pulmonary hypertension (IPAH) or related to congenital heart disease (CHD) (repaired or unrepaired) or cardiomyopathy, with pulmonary vascular resistance index (PVRI)>3 u−m^2. Later amendments, as discussed herein, added an additional inclusionary criterion of a PCWP less than 20 mm Hg. Patients were studied under general anaesthesia, or with conscious sedation, according to the practice of the investigator. Exclusion criteria: focal infiltrates on chest X-ray, history of intrinsic lung disease, and/or currently taking PDE-5 inhibitors, prostacyclin analogues or sodium nitroprusside. The study involved supplemental O2 and NO for inhalation plus O2 in the evaluation of the reactivity of the pulmonary vasculature during acute pulmonary vasodilator testing. Consecutive children undergoing cardiac catheterization were prospectively enrolled at 16 centers in the US and Europe. […] A specific secondary endpoint was evaluated in study INOT22 to provide a more definitive evaluation.
The primary objective was to compare the response frequency with iNO and O2 vs. O2 alone; in addition, all subjects were studied with iNO alone. Patients were studied during five periods: Baseline 1, Treatment Period 1, Treatment Period 2, Baseline 2 and Treatment Period 3. All patients received all three treatments; treatment sequence was randomized by center in blocks of 4; in Period 1, patients received either NO alone or O2 alone, and the alternate treatment in Period 3. All patients received the iNO and O2 combination treatment in Period 2. Once the sequence was assigned, treatment was unblinded. Each treatment was given for 10 minutes prior to obtaining hemodynamic measurements, and the Baseline Period 2 was at least 10 minutes.

[2] = test system: neonates with hypoxic respiratory failure; details: n=114, number (%), cited from earlier work
[3] = test system: term and near-term neonates with pulmonary hypertension and hypoxic respiratory failure; details: Inhaled NO n=97; number of patients (%); cited from earlier work

Molecule	SVRI Change From Baseline, Mean [1] [WU · m^2]	SVRI Change From Baseline, Median [1] [WU · m^2]	SVRI Change From Baseline, Minimum [1] [WU · m^2]	SVRI Change From Baseline, maximum [1] [WU · m^2]	Ratio PVRI/SVRI Change from Baseline, Maximum [1]	Ratio PVRI/SVRI Change from Baseline, Mean [1]	Ratio PVRI/SVRI Change from Baseline, Median [1]	Ratio PVRI/SVRI Change from Baseline, Minimum [1]	Ratio PVRI/SVRI Percent Change from Baseline, Maximum [1] [%]	Ratio PVRI/SVRI Percent Change from Baseline, Mean [1] [%]	Ratio PVRI/SVRI Percent Change from Baseline, Median [1] [%]	Ratio PVRI/SVRI Percent Change from Baseline, Minimum [1] [%]	Ratio PVRI/SVRI Post Treatment, Maximum [1]	Ratio PVRI/SVRI Post Treatment, Mean [1]	Ratio PVRI/SVRI Post Treatment, Median [1]	Ratio PVRI/SVRI Post Treatment, Minimum [1]	SVRI Post-treatment, Mean [1] [WU · m^2]	SVRI Post-treatment, Median [1] [WU · m^2]	SVRI Post-treatment, Minimum [1] [WU · m^2]	SVRI Post-treatment, maximum [1] [WU · m^2]	further results
O=O [O2, oxygen]	1.3	1.0	−18.1	17.7	2.0	−0.1	−0.1	−1.6	93.3	−19.3	−21.3	−122.7	1.4	0.4	0.4	0.0	18.9	17.1	3.9	43.6	–
nitric oxide [NO]	−0.2	0.2	−12.5	12.7	1.6	−0.1	0.0	−4.4	294.1	−6.2	−13.8	−256.1	2.2	0.5	0.3	−1.2	17.8	15.4	3.3	50.7	tolerability [1]: well-tolerated; tolerability ([1]; listed as iNO): well-tolerated in most patients; Death or ECMO ([2]; 100% O2 with 20 ppm NO for up to 14 days, primary end point): 52 (46%); Death ([2]; 100% O2 with 20 ppm NO): 16 (14%); ECMO ([2]; 100% O2 with 20 ppm NO): 44 (39%); Adverse Reaction: Atelectasis [3]: 7 (6.5%); Adverse Reaction: Bilirubinemia [3]: 7 (6.5%); Adverse Reaction: Hypokalemia [3]: 9 (8.3%); Adverse Reaction: Hypotension [3]: 6 (5.6%); Adverse Reaction: Thrombocytopenia [3]: 16 (14.8%)
